Structures are written as SMILES. Converted amounts (≈) assume the structure as drawn. Counter-ions that a name gives are not always drawn. Like-named read-outs stand apart in the source and are kept apart here.

The record followed here is patent publication US4272437A, “Antibacterial agents, and 4-thio azetidinone intermediates” (priority 1979, dated 1981).

One assay relates to Ent. cloacae A-9656. Briefly: MIC, tube dilution, Enterobacter cloacae A9656. The class given is cell-based. Conditions: overnight 37° C., read-out: Minimum Inhibitory Concentration (M.I.C.). The text has this: (§1) Representative compounds of the present invention were subjected to in vitro antibiotic screening against a variety of microorganisms.
Another assay deals with Pr. morganii A-15153. Briefly: MIC, tube dilution, Proteus morganii A15153. The class given is cell-based. As to conditions: Morganella morganii, A15153, Proteus morganii A15153; overnight 37° C.; read-out: Minimum Inhibitory Concentration (M.I.C.).
Excerpt: as §1

The subject of another assay is Str. pneumoniae A-9585. Briefly: MIC, tube dilution, Streptococcus pneumoniae A9585. The class given is cell-based. Conditions: Streptococcus pneumoniae, A9585, Str. pneumoniae A9585; overnight 37° C., Nutrient Broth; read-out: Minimum Inhibitory Concentration (M.I.C.).
Excerpt: as §1

In another assay the test system is K. pneumoniae A-15130. Briefly: MIC, tube dilution, Klebsiella pneumoniae A15130. It is filed as cell-based. Conditions: Klebsiella pneumoniae, A15130, K. pneumoniae A15130; overnight 37° C.; read-out: Minimum Inhibitory Concentration (M.I.C.).
Excerpt: as §1

The test system of the next assay is Str. pyogenes A-9604. Briefly: MIC, tube dilution, Streptococcus pyogenes A9604. The class given is cell-based. Conditions: Streptococcus pyogenes, A9604, Str. pyogenes A9604; overnight 37° C., Nutrient Broth; read-out: Minimum Inhibitory Concentration (M.I.C.).
Excerpt: as §1

Another assay relates to Str. faecalis A-20688. Briefly: MIC, tube dilution, Streptococcus faecalis A20688. The class given is cell-based. As to conditions: Enterococcus faecalis, A20688, Str. faecalis A20688; overnight 37° C.; read-out: Minimum Inhibitory Concentration (M.I.C.).
Excerpt: as §1

The subject of another assay is E. coli A-15119. Briefly: MIC, tube dilution, Escherichia coli A15119. The class given is cell-based. As to conditions: Escherichia coli, A15119, E. coli A15119; overnight 37° C.; read-out: Minimum Inhibitory Concentration (M.I.C.).
Excerpt: as §1

Another assay has as its system Pr. mirabilis A-9900. Briefly: MIC, tube dilution, Proteus mirabilis A9900. It is filed as cell-based. Conditions: Proteus mirabilis, A9900, Proteus mirabilis A9900; overnight 37° C.; read-out: Minimum Inhibitory Concentration (M.I.C.).
Excerpt: as §1

For the next assay, the system named is Ser. marcescens A-20019. Briefly: MIC, tube dilution, Serratia marcescens A20019. Conditions: Serratia marcescens, A20019, Serratia marcescens A20019; overnight 37° C.; read-out: Minimum Inhibitory Concentration (M.I.C.). The class given is cell-based.
Excerpt: as §1

In a further assay the test system is Staph. aureus A-9537. Briefly: MIC, tube dilution, Staphylococcus aureus A9537. It is filed as cell-based. Conditions: Staphylococcus aureus, A9537, Staph. aureus A9537; overnight 37° C., Nutrient Broth; read-out: Minimum Inhibitory Concentration (M.I.C.).
Excerpt: as §1

For assay [1], the system named is Staph. aureus (Pen-Res) A-9606. Briefly: MIC, tube dilution, Staphylococcus aureus A9606 (Pen-Res). The class given is cell-based. Conditions: Staphylococcus aureus, Staph. aureus A9606 (Pen-Res); overnight 37° C.; read-out: Minimum Inhibitory Concentration (M.I.C.).
Excerpt: as §1

Another assay has as its system Ps. aeruginosa A-21213. Put plainly: MIC, tube dilution, Pseudomonas aeruginosa A21213. The class given is cell-based. As to conditions: overnight 37° C., read-out: Minimum Inhibitory Concentration (M.I.C.).
Excerpt: as §1

A further assay relates to E. coli A-20341-1. Put plainly: MIC, tube dilution, Escherichia coli A20341-1. The class given is cell-based.
Excerpt: as §1

Assay [2] has as its system Staph. aureus A-9537 and 50% serum. Put plainly: MIC, tube dilution, Staph. aureus A9537 + 50% serum. It is filed as cell-based, Staphylococcus aureus. As to conditions: Staphylococcus aureus, overnight 37° C., read-out: Minimum Inhibitory Concentration (M.I.C.).
Excerpt: as §1

Assay [3] deals with Klebsiella species A20468. Briefly: MIC, tube dilution, Klebsiella species A20468. The class given is cell-based. Conditions: Klebsiella species (K. pneumoniae) A20468; overnight 37° C.; read-out: Minimum Inhibitory Concentration (M.I.C.).
Excerpt: as §1

For a further assay, the system named is Ent. cloacae A-9659. Briefly: MIC, tube dilution, Enterobacter cloacae A9659. It is filed as cell-based. As to conditions: Enterobacter cloacae, A9659, Enterobacter cloacae A9659; overnight 37° C.; read-out: Minimum Inhibitory Concentration (M.I.C.).
Excerpt: as §1

A further assay concerns Ps. aeruginosa A-9843A. Briefly: MIC, tube dilution, Pseudomonas aeruginosa A9843A. Conditions: Pseudomonas aeruginosa, A9843A, read-out: Minimum Inhibitory Concentration (M.I.C.), Pseudomonas aeruginosa A9843A; overnight 37° C. The class given is cell-based.
Excerpt: as §1

A further assay has as its system Proteus vulgaris A21559. Briefly: MIC, tube dilution, Proteus vulgaris A21559. Conditions: Proteus vulgaris. The class given is cell-based.
Excerpt: as §1

Another assay relates to Proteus rettgeri A21203. Put plainly: MIC, tube dilution, Proteus rettgeri A21203. It is filed as cell-based. Conditions: Providencia rettgeri, overnight 37° C., read-out: Minimum Inhibitory Concentration (M.I.C.).
Excerpt: as §1

The test system of assay [4] is Staph. aureus (Meth-Res) A-15097. Put plainly: MIC, tube dilution, Staphylococcus aureus A15097 (Meth-Res). Conditions: Staphylococcus aureus, overnight 37° C. The class given is cell-based.
Excerpt: as §1

[5] abbreviates: Escherichia coli, A203411; E. coli A20341-1; overnight 37° C.; read-out: Minimum Inhibitory Concentration (M.I.C.).
Where [6] appears, read: A21559, Proteus vulgaris A21559, overnight 37° C., read-out: Minimum Inhibitory Concentration (M.I.C.).
[7] abbreviates: Staph. aureus A15097 (Meth-Res), read-out: Minimum Inhibitory Concentration (M.I.C.).
Where [8] appears, read: Enterobacter cloacae, A9656, Enterobacter cloacae A9656.
Setting [9] is: Pseudomonas aeruginosa, A21213, Pseudomonas aeruginosa A21213.
Where [10] appears, read: Escherichia coli, A203411, E. coli A20341-1; overnight 37° C.; read-out: Minimum Inhibitory Concentration (M.I.C.).
Setting [11] is: A21203, Proteus rettgeri A21203.

As for `Cc1cc(C)n(CC2=C(C(=O)O)N3C(=O)CC3S2)n1` (centres unmarked) [Example 77, Sodium 2-(3,5-Dimethyl-1H-pyrazolemethyl)-penem-3-carboxylate], the MIC is 125 µg/mL in the assay on Ent. cloacae A-9656 (Enterobacter cloacae A9656); 16 µg/mL in the assay on Pr. morganii A-15153; 0.03 µg/mL in the assay with Str. pneumoniae A-9585; over 125 µg/mL in the assay on K. pneumoniae A-15130; 0.5 µg/mL with Str. pyogenes A-9604; 125 µg/mL with Str. faecalis A-20688. The MIC with E. coli A-15119 was 4 µg/mL; with Pr. mirabilis A-9900, 2 µg/mL; with Ser. marcescens A-20019 it was over 125 µg/mL; with Staph. aureus A-9537, 0.13 µg/mL; in assay [1], 4 µg/mL; in the assay with Ps. aeruginosa A-21213 (Pseudomonas aeruginosa A21213) it was over 125 µg/mL. Further, the MIC was over 125 µg/mL in the assay with E. coli A-20341-1 (setting [5]); over 63 µg/mL in [2]; over 125 µg/mL in assay [3]; over 125 µg/mL in the assay on Ent. cloacae A-9659; over 125 µg/mL in the assay on Ps. aeruginosa A-9843A; 63 µg/mL with Proteus vulgaris A21559 (setting [6]). In addition, the MIC is over 125 µg/mL in the assay on Proteus rettgeri A21203 (Proteus rettgeri A21203) and 16 µg/mL in assay [4] (setting [7]).

For `CC[C@@H](O)[C@H]1C(=O)N2C(C(=O)O)=C(C)S[C@H]12` (relative stereo) [Example 94, (1'R,5R,6S and 1'S,5S,6R) 6-(1'-Hydroxy-1'-propyl)-2-methylpenem-3carboxylic acid, sodium and potassium salts (isomer B)], the MIC with Ent. cloacae A-9656 (Enterobacter cloacae A9656) is over 125 µg/mL; in the assay with Pr. morganii A-15153 it was over 125 µg/mL; in the assay with Str. pneumoniae A-9585, 1 µg/mL; in the assay on K. pneumoniae A-15130, over 125 µg/mL; in the assay with Str. pyogenes A-9604, 16 µg/mL; with Str. faecalis A-20688, over 125 µg/mL. In addition, the MIC was over 125 µg/mL with E. coli A-15119; over 125 µg/mL in the assay on Pr. mirabilis A-9900; over 125 µg/mL in the assay with Ser. marcescens A-20019; 32 µg/mL in the assay with Staph. aureus A-9537; 32 µg/mL in assay [1]; over 125 µg/mL in the assay with Ps. aeruginosa A-21213 (Pseudomonas aeruginosa A21213). In addition, the MIC is over 125 µg/mL with E. coli A-20341-1 (setting [5]); over 63 µg/mL in [2]; over 125 µg/mL in assay [3]; over 125 µg/mL in the assay on Ent. cloacae A-9659; over 125 µg/mL in the assay on Ps. aeruginosa A-9843A; over 125 µg/mL in the assay on Proteus vulgaris A21559 (A21559, read-out: Minimum Inhibitory Concentration (M.I.C.)). Besides, the MIC in the assay on Proteus rettgeri A21203 (Proteus rettgeri A21203) was over 125 µg/mL; in assay [4] (read-out: Minimum Inhibitory Concentration (M.I.C.), Staph. aureus A15097 (Meth-Res)), over 125 µg/mL.

Regarding `C[C@@H](O)[C@H]1C(=O)N2C(C(=O)O)=C(COCCN)S[C@H]12` (relative stereo) [66,96], the MIC in the assay with Ent. cloacae A-9656 (setting [8]) came to 2 µg/mL (≈ 6.94 µM); in the assay with Pr. morganii A-15153 it was 4 µg/mL (≈ 13.9 µM); in the assay on Str. pneumoniae A-9585, 0.03 µg/mL (≈ 0.104 µM); in the assay with K. pneumoniae A-15130 it was 2 µg/mL (≈ 6.94 µM); with Str. pyogenes A-9604, 0.03 µg/mL (≈ 0.104 µM); in the assay on Str. faecalis A-20688 it was 4 µg/mL (≈ 13.9 µM). For the same molecule, the MIC with E. coli A-15119 came out at 0.5 µg/mL (≈ 1.73 µM); in the assay on Pr. mirabilis A-9900 it was 1 µg/mL (≈ 3.47 µM); in the assay on Ser. marcescens A-20019 it was 2 µg/mL (≈ 6.94 µM); with Staph. aureus A-9537, 0.06 µg/mL (≈ 0.208 µM); in assay [1], 0.25 µg/mL (≈ 0.867 µM); in the assay with Ps. aeruginosa A-21213 (setting [9]), 8 µg/mL (≈ 27.7 µM). For the same molecule, the MIC was determined as 0.5 µg/mL (≈ 1.73 µM) in the assay on E. coli A-20341-1 (setting [10]); 0.5 µg/mL in [2]; 2 µg/mL (≈ 6.94 µM) in assay [3]; 8 µg/mL (≈ 27.7 µM) with Ent. cloacae A-9659; 16 µg/mL (≈ 55.5 µM) in the assay on Ps. aeruginosa A-9843A; 1 µg/mL (≈ 3.47 µM) in the assay with Proteus vulgaris A21559 (setting [6]). Also, the MIC in the assay with Proteus rettgeri A21203 (setting [11]) amounted to 2 µg/mL (≈ 6.94 µM); in [4] (setting [7]), 1 µg/mL (≈ 3.47 µM).

Turning to `COCOC[C@@H](O)[C@H]1C(=O)N2C(C(=O)O)=C(C)S[C@H]12` (relative stereo) [Example 106, (1'S,5R,6S and 1'R,5S,6R) 6-(1'-Hydroxy-2'-methoxymethoxy-2'-ethyl)-2-methylpenem-3-carboxylic acid (Isomer B)], the MIC with Ent. cloacae A-9656 (setting [8]) is 63 µg/mL (≈ 218 µM); in the assay with Pr. morganii A-15153 it was over 63 µg/mL; with Str. pneumoniae A-9585 it was 32 µg/mL (≈ 111 µM); in the assay with K. pneumoniae A-15130, over 63 µg/mL; in the assay with Str. pyogenes A-9604, 32 µg/mL (≈ 111 µM); in the assay on Str. faecalis A-20688 it was over 63 µg/mL. Moreover, the MIC in the assay on E. coli A-15119 was 63 µg/mL (≈ 218 µM); in the assay on Pr. mirabilis A-9900 it was 63 µg/mL (≈ 218 µM); in the assay on Ser. marcescens A-20019, 63 µg/mL (≈ 218 µM); in the assay on Staph. aureus A-9537, 63 µg/mL (≈ 218 µM); in assay [1] it was over 63 µg/mL; in the assay on Ps. aeruginosa A-21213 (setting [9]), 63 µg/mL (≈ 218 µM). In addition, the MIC in the assay with E. coli A-20341-1 (setting [10]) was 63 µg/mL (≈ 218 µM); in [2] it was over 32 µg/mL; in assay [3] it was over 63 µg/mL; in the assay on Ent. cloacae A-9659, over 63 µg/mL; with Ps. aeruginosa A-9843A, 63 µg/mL (≈ 218 µM); in the assay with Proteus vulgaris A21559 (setting [6]), over 63 µg/mL. Also, the MIC is 63 µg/mL (≈ 218 µM) in the assay on Proteus rettgeri A21203 (setting [11]) and over 63 µg/mL in assay [4] (setting [7]).
